Values after ≈ are worked out from the molar mass of the structure shown.
Tests used:
Assay type in all cases: functional
Conditions in all cases: read-out: ED50 (the source's name)
A549 = test: Cytotoxicity against human A549 cells
MCF7 = test: Cytotoxicity against human MCF7 cells
HT-29 = test: Cytotoxicity against human HT-29 cells

COc1cc([C@H]2OC[C@H](Cc3cc(OC)c(O)c(OC)c3)[C@@H]2CO)ccc1O [JUSTICIRESINOL]
EC50 (A549): 31.3 µg/mL (≈ 80.2 µM)
EC50 (MCF7): 22.3 µg/mL (≈ 57.1 µM)
EC50 (HT-29): 18.3 µg/mL (≈ 46.9 µM)

Reference: ChEMBL document CHEMBL1150205, “Justiciresinol, a new furanoid lignan from Justicia glauca” (1991)
